# Results taken from patent publication US9597326B2 (priority 2010, dated 2017).
# Key:
# human TLR7 = human TLR7 (Homo sapiens (Human), UniProt Q9NYK1); type: cell-based; conditions: HEK293 reporter; relative to resiquimod set to 100%
# [1] = system: cytokines (IFN-γ, IL-10, IL-12 p40, IL-1β, IL-5, IL-6, MCP-1, KC, TNF-α); type: in vivo, mice; conditions: IP; peak concentration over 24 h; FIG. 6
# human TLR7, sequence (Q9NYK1 27-1049 limits assumed): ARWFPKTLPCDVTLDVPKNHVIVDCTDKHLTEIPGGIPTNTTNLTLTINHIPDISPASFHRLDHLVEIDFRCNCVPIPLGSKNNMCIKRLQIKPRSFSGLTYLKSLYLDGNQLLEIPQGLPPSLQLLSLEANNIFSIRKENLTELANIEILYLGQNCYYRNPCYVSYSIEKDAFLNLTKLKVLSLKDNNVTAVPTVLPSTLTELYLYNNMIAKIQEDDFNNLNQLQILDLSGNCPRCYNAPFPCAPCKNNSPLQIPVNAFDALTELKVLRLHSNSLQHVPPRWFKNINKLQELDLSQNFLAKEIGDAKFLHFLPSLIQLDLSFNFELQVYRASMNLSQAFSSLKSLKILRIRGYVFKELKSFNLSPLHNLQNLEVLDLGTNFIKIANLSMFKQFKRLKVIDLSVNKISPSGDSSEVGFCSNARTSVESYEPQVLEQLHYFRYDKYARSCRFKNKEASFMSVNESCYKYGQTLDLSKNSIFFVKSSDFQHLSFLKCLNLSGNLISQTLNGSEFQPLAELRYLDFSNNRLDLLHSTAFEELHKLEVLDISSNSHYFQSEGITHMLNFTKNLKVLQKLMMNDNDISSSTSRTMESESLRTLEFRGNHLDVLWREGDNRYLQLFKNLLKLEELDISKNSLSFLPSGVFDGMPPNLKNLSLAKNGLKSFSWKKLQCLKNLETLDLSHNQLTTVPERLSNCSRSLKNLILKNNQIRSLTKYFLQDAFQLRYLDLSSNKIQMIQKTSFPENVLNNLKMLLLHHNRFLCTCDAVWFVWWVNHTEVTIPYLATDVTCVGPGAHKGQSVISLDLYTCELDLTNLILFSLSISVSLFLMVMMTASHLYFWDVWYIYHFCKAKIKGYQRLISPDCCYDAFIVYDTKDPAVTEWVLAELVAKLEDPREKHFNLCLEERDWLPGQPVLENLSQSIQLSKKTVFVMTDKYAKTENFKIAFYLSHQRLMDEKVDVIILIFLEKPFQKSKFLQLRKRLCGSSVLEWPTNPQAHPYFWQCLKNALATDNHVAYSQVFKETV
SMILES,EC50 (human TLR7) [nM],cytokine induction of IL-1β compared to R-848 [1],cytokine induction of IL-5 compared to peanut oil-control [1],cytokines induced compared to peanut oil-control [1]
COc1ccc(CCc2cnc3c(N)nc4cc(C(C)(P(=O)(O)O)P(=O)(O)O)ccc4c3c2)c(C)c1 [Compound 19],23800,,,
"COc1ccc(CCc2cnc3c(N)nc4cc(C)ccc4c3c2)c(C)c1 [SMIP 28, 2-(4-methoxy-2-methylphenethyl)-8-methylbenzo[f][1,7]naphthyridin-5-amine]",,significantly greater cytokine induction of IL-1β,"Neither administration of SMIP 28 nor R-848, compared to peanut oil-control, resulted in a cytokine induction of IL-5","cytokine induction of IFN-γ, IL-12 p40, IL-1β, IL-6, MCP-1, mKC, and TNF-α"
"CCOCc1nc2c(N)nc3ccccc3c2n1CC(C)(C)O [R-848, resiquimod, reference compound]",,,"Neither administration of SMIP 28 nor R-848, compared to peanut oil-control, resulted in a cytokine induction of IL-5","cytokine induction of IFN-γ, IL-10, IL-12 p40, IL-6, MCP-1, mKC, and TNF-α"
